Reference: patent publication US8580321B2, “Method for reducing the effects of chemotherapy using flagellin related polypeptides” (priority 2003, dated 2013)
Like-named read-outs stand apart in the source and are kept apart here.

Experiments:
NF-κB [1] = test: EMSA of NF-κB binding activity in HT29 human colon cancer cells; assay type: cell-based; conditions: fragments 1 mg/ml, 15 min
Experimental: We further minimized the AA′ flagellin fragment by producing additional fragments through stepwise removal of peptide fragments from its N-terminal half (Table 2). […] NF-κB binding activity in HT29 cells was stimulated with TNFa (10 ng/ml), or flagellin fragments (1 mg/ml) for 15 min.

NF-κB [2] = test: EMSA of NF-κB translocation / DNA binding in A549 cells; conditions: A549 cells, 1 μg/ml, 45 min, EMSA of whole cell extracts
lethally irradiated mice = conditions: cited from earlier work
[3] = test system: C57B1/6J mice treated with gamma radiation; conditions: Komarov et al 1999; cited from earlier work
[4] = test system: C57B1/6J mice treated with gamma radiation; test: Radioprotection of mice by p53 inhibitor PFTα; assay type: in vivo, mouse; conditions: I.P. 10 mg/kg
NF-κB [5] = test: NF-κB-regulated luciferase reporter assay in H116 human colon cancer cells; assay type: cell-based
Source text: While translocation of NF-κB to the nucleus is a crucial step in induction of NF-κB-regulated inhibitors of apoptosis, it is not sufficient in itself. To directly test the ability of selected fragments to induce expression of NF-κB-regulated genes, we performed reporter assay experiments. Flagellin and the AA′, BB′, A′ and B′ fragments were used for treatment of H116 human colon cancer cells carrying luciferase gene under a NF-κB-responsive promoter. The reporter construct contained three NF-κB-binding sites from the E-selectin promoter combined with a Hsp70 minimal promoter that is routinely used for the detection of NF-κB status of cells. Luciferase activity was measured in cell lysates six hours after addition of flagellin or its truncated fragments into the medium. TNF was used as positive control.
In order to study the ability of the AA′ fragments to directly activate NF-κB-regulated transcription, we performed reporter assay experiments as described above for a wide range of concentrations of flagellin, original AA′ and AA′-derived fragments.

[6] = test system: NIH Swiss mice treated with cisplatinum; conditions: i.p.; cited from earlier work
[7] = in vivo; cited from earlier work
[8] = test system: NIH Swiss mice treated with cisplatinum; conditions: 10 mg/kg, after two weeks, n=11
[9] = test system: mice treated with total body gamma radiation; test: Mouse survival after total body gamma irradiation (radioprotection); assay type: in vivo; conditions: s.c. 5.0 μg/mouse (0.2 mg/kg)
Experimental: Whole body irradiation of mice with 15 Gy gamma radiation caused death within 8 days from GI syndrome providing a conventional model of radiation induced damage of GI tract. To test whether flagellin was capable of protecting GI epithelium from IR, we tested the effect of i.v.-injected flagellin on the dynamics of mouse lethality after 15 Gy of radiation. […] Irradiation was done 4 hours post treatment. As expected, control irradiated mice (that received PBS i.v.) died between 5 and 8 days post-treatment. […] Intravenous, intraperitoneal and subcutaneous delivery of 0.2 mg/kg of flagellin followed by 13 Gy irradiation afforded similar degree of protection, leading to 85-90% 30-day survival of mice (data not shown). While not being bound by theory, flagellin may be a radioprotectant due to its activation of NF-κB, which presumably acts as an inhibitor of apoptotic death.
The experiments were done similarly to the above-described ones (FIGS. 14 and 15), however, instead of 15Gy, mice received 10Gy, the dose that caused 100% killing in control group by day 13 (FIG. 6).
In order to further estimate the dependence of radioprotective activity of flagellin on the time of treatment, mice were injected at several time points relative to the moment of gamma-irradiation. Experiments were performed essentially as explained above, using intraperitoneal injection of 5 μg/mouse (0.2 mg/kg) of full-length flagellin or, for control mice, 5 μg/mouse (0.2 mg/kg) of bacterial RNA polymerase. The experiments were performed using the NIH-Swiss mouse strain. […] Only −1 h graph is shown for clarity, however, both timepoints (−1 and −2 h) provide similar degree and dynamics of survival.
We next obtained an estimate of radiation dose-dependent protection for flagellin. As shown above (FIG. 7), treatment with flagellin was sufficient for 100% protection against 10 Gy gamma-irradiation (this dose causes death from hematopoietic syndrome) and 90% 30-day survival at 13 Gy (both hematopoietic and GI syndromes). Experiments were performed as described above, using flagellin 5 μg/mouse (0.2 mg/kg), intraperitoneally injected 1 h before irradiation.
As shown above, full-length flagellin provides protection from both hematopoietic and gastrointestinal syndromes. The radioprotective potential of flagellin fragments was similarly tested after gamma-irradiation with 11 Gy (dose that induces hematopoietic syndrome-associated mortality in mice) or 14 Gy (dose that causes death from GI syndrome). Mice (10 animals per group) were injected subcutaneously with 5.0 μg/mouse (0.2 mg/kg) of flagellin or its fragments, AA′ or BB′, and gamma-irradiated 1 hour later.
In order to explore the limits of radioprotection provided by the AA′ fragment, we irradiated mice with 17 Gy and 20 Gy single doses of total body gamma-radiation.
We tested the ability of AA′ to protect mice that were exposed to it. A group of 20 NIH-Swiss mice were subcutaneously injected with 5 μg/mouse (0.2 mg/kg) of AA′. A second injection of a equal dose of AA′ was administered after 21 (10 mice) and 28 days (another 10 mice), with the time elapsed being sufficient for formation of antibodies. The second injection of AA′ was followed by 13 Gy of whole-body gamma irradiation (1 h post-injection).
Repetitive irradiation within a short period of time may be common, for example, in space radiation events and in clinical radiotherapy regimens. We tested the ability of the AA′ flagellin fragment to protect mice from sub-lethal (4 treatments of 3 Gy) and 100% lethal (4 treatments of 4 Gy) regimens of fractionated gamma-irradiation. Fragment AA′ or saline buffer was given to NIH-Swiss female mice before every irradiation (once a day for 4 days). AA′ was administered as described above for single-dose irradiation (5 μg/mouse, given subcutaneously 1 h before irradiation). […]
We have extensively confirmed that AA′ protects NIH-Swiss and ICR mice from radiation. […]

For “AA′n1-163: (1-163)-Linker-(402-505), SEQ ID NO: 34”, the “induction of NF-κB translocation” value (NF-κB [1]) was “induce NF-κB translocation”, the “level of NF-κB translocation relative to flagellin” value (NF-κB [1]) was “comparable to that of flagellin” and the “NF-κB Stimulation” value (NF-κB [2]) was “Yes”.

For “AA′n54-170: (54-170)-Linker-(402-505), SEQ ID NO: 32”, the “induction of NF-κB translocation” value (NF-κB [1]) was “induce NF-κB translocation”, the “level of NF-κB translocation relative to flagellin” value (NF-κB [1]) was “comparable to that of flagellin” and the “NF-κB Stimulation” value (NF-κB [2]) was “Yes”.

In the case of `C[C@]12CC[C@H]3[C@@H](CC=C4C[C@@H](O)CC[C@@]43C)[C@@H]1CC[C@@H]2O` [5-AED, 5-androstenediol, reference compound], the DMF (lethally irradiated mice; subcutaneous injection in mice 24 h before irradiation) is listed as 1.26.

In the case of “SCF: stem cell factor (SCF, c-kit ligand), hematopoietic cytokine and radioprotectant”, the DMF (lethally irradiated mice; lethally irradiated mice) is given as 1.3-1.35.

In the case of `Cc1ccc(C(=O)Cn2c3c(sc2=N)CCCC3)cc1` [PFTα, pifithrin-alpha], the “lethality of wild type animals receiving 6-11 Gy” value [3] is given as “could be reduced”, the “protection from single 9 Gy and fractioned cumulative 12.5 Gy (5×2.5 Gy)” value [4] is given as “protects” and the “survival after single 12.5 and 25 Gy doses of IR” value [4] is given as “no effect on survival”.

With “AA′n1-170: (1-170)-Linker-(402-505), SEQ ID NO: 30” the “level of NF-κB-regulated transcription relative to flagellin” value (NF-κB [5]; reporter assay, over the studied range of concentrations) was “comparable to such of flagellin”, the “NF-κB reporter activity relative to flagellin” value (NF-κB [5]; very low concentration range) was “more active than flagellin” and the “induction of NF-κB translocation” value (NF-κB [1]) was “induce NF-κB translocation”. For the same molecule, the “level of NF-κB translocation relative to flagellin” value (NF-κB [1]) was “comparable to that of flagellin” and the “NF-κB Stimulation” value (NF-κB [2]) was “Yes”.

For “AA′n54-163: (54-163)-Linker-(402-505), SEQ ID NO: 36”, the “induction of NF-κB translocation” value (NF-κB [1]) was “induce NF-κB translocation” and the “NF-κB Stimulation” value (NF-κB [2]) was “Yes”.

In the case of `N.N.[Cl][Pt][Cl]` [cisplatinum], the “maximum tolerable dose [MTD]” value [6] is given as 10 mg/kg, the beta deterioration [7] is given as 60 min and the “mean loss in body weight, cisplatinum alone” value [8] is given as roughly 30%.

B1: Flt-3 ligand: cytokine conferring radioprotection (protein, UniProt P49771 27-235, looked up)
Fms-related tyrosine kinase 3 …: TQDCSFQHSPISSDFAVKIRELSDYLLQDYPVTVASNLQDEELCGGLWRLVLAQRWMERLKTVAGSKMQGLLERVNTEIHFVTKCAFQPPPSCLRFVQTNISRLLQETSEQLVALKPWITRQNFSRCLELQCQPDSSTLPPPWSPRPLEATAPTAPQPPLLLLLLLPVGLLLLAAAWCLHWQRTRRRTPRPGEQVPPVPSPQDLLLVEH
In the case of B1, the DMF (lethally irradiated mice; lethally irradiated mice) is listed as greater than 1.2 and the “30-day survival at LD100/30” value (lethally irradiated mice; mice) is listed as 70-80%.

B2: BB′: flagellin fragment (56-177)-Linker-(402-450), SEQ ID NO: 14 (protein)
chain: MRGSHHHHHHGMASMTGGQQMGRDLYDDDDKDPFTSNIKGLTQASRNANDGISIAQTTEGALNEINNNLQRVRELSVQATNGTNSDSDLKSIQDEIQQRLEEIDRVSNQTQFNGVKVLSQDNQMKIQVGANDGETITIDLQKIDVKSLGLDGFNVNSPGISGGGGGILDSMGTLINEDAAAAKKSTANPLASIDSALSKVDAVRSSLGAIQNRFDSAITNL
modifications: Salmonella dublin
In the case of B2, the “30-day survival, 11 Gy” value ([9]; 1 hour before 11 Gy) is reported as 0%, the “30-day survival, 14 Gy” value ([9]; 1 hour before 14 Gy) is reported as 0% and the “NF-κB Stimulation” value (NF-κB [2]) is reported as “No”.
